Our source for the IC50 values is patent US11815511B2 (priority 2019, dated 2023).

Where only a bound is given, the exact number is not on record here.

The test system of this experiment is anti-4,15-diacetoxyscirpenol monoclonal antibody secreted by hybridoma cell strain DAS5G11E7. Format: binding, mouse. Conditions: in ng/mL.
For the compound HT-2 toxin, the IC50 is reported as >100,000. As to 3-acetyldeoxynivalenol [3-acetyl-DON], the IC50 was >100,000. With `C[C@@H]1Cc2c(Cl)cc(C(=O)N[C@@H](Cc3ccccc3)C(=O)O)c(O)c2C(=O)O1` [OTA, ochratoxin], the IC50 was >100,000. To `CC1=C[C@H]2O[C@@H]3[C@H](O)C[C@](C)([C@@]2(CO)[C@H](O)C1=O)[C@]31CO1` [DON, Deoxynivalenol] belongs >100,000.
